{"source": "patent US20150071918A1", "about": "“PEPTIDES FOR THE TREATMENT OF CANCER” (H. LEE MOFFITT CANCER CENTER AND RESEARCH INSTITUTE, INC., priority 2012, published 2015)", "key": {"[1]": {"test_system": "H929 myeloma cells", "format": "cell-based, human", "details": "H929 cells", "description": "H929 cells were treated for 24 hours with varying concentrations of peptide. Cell death was measured by Topro-3 staining and FACS analysis. The IC50 values were obtained from linear regression analysis and an average value was obtained from 3 independent experiments.\nTable 4 legend: Structure activity relationship in H929 myeloma cells of cyclic INTEGRIN INTERACTION INHIBITORS derivatives. The minimal bioactive core sequence of INTEGRIN INTERACTION INHIBITORS WSVVM (SEQ ID NO:33) was cyclized using 2 novel reduced amide bond beta turn promoters and KLKLK (SEQ ID NO:34) as the non-recognition sequence. H929 cells were treated with varying concentrations of the indicated peptide for 24 h. Cell viability was determined using Topro-3 staining and FACS analysis after drug treatment. IC50 values were generated from linear regressions generated from the dose response curves (n=mean of 3 independent experiments).\nA colony forming assay was used to compare induced cell death in H929 multiple myeloma cells. Cells were treated with integrin interaction inhibitors, shown in FIG. 5 and Table 4, and cell death was measured following 24 hour peptide treatment by TOPRO-3 staining and FACS analysis."}, "[2]": {"biological_target": "T1, full length recombinant human CD44 (Homo sapiens, UniProt P16070)", "T1 construct": "purchased Abnova", "T1 sequence (P16070 21-699 isoform P16070-4 limits assumed)": "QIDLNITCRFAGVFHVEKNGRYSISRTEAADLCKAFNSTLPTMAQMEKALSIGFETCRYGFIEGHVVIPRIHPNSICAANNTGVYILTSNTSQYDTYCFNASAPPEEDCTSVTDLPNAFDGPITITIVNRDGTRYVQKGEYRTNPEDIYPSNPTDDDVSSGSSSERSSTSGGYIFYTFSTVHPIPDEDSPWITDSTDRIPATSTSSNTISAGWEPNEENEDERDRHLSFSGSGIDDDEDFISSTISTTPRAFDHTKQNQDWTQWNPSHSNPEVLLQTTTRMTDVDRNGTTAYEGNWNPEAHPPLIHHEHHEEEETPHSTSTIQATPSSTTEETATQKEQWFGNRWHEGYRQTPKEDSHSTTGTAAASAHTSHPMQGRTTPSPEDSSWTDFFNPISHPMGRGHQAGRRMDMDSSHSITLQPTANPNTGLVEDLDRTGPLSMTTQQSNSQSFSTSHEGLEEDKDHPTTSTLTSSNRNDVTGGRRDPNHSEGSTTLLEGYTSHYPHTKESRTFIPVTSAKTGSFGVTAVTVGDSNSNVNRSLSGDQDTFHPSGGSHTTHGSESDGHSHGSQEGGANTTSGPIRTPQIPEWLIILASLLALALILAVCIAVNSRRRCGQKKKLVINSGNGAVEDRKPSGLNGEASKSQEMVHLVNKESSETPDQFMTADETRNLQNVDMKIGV", "assay": "ELISA based binding assay, biotin-HYD1 on NeutrAvidin coated wells", "details": "biotin as control", "source_text": "FIG. 41. […] A primary CD44 antibody and HRP conjugated secondary antibody and chemiluminescence detection was used to quantify rCD44 binding to immobilized biotin-HYD1.\nFIG. 51. ELISA based binding assay confirms that biotin-HYD1 binds to full length recombinant human CD44 in a concentration dependent manner. Biotin was bound to NeutrAvidin coated wells to control for non-specific binding.\nThe inventors used biotin-HYD1 as bait to pulldown binding complexes contained within membrane extracts of H929 MM cells. The pull down assay was directly coupled with an unbiased Mass-Spec analysis to identify HYD1 binding partners. […] NeutrAvidin beads were used to reduce non-specific binding. […] The inventors next determined whether α4 integrin could be detected by western blot analysis. […] To determine whether […] was indeed a direct binding partner of […] the inventors used recombinant CD44 and an ELISA as a readout of binding. […]\nThe inventors performed a total membrane binding assay with biotin conjugated HYD1 and NeutrAvidin beads on NCI-H929 and U266 MM cells. Samples were then loaded on an SDS-PAGE gel, trypsin digested, and analyzed by Liquid Chromatography-Mass Spectrometry/Mass Spectrometry (LC-MS/MS). […] For more quantitative binding affinity analysis we produced the human globular ectodomain of CD44 comprising of amino acids 20-178. […]"}, "[3]": {"test_system": "CD44 and α4 integrin in membrane extracts", "assay": "Pull-down of membrane extract with biotin-conjugated peptide on NeutrAvidin beads, western blot / LC-MS/MS", "format": "binding", "details": "H929 cells, 30 μg membrane extract, western blot pan-CD44 antibody", "description": "FIG. 39. […] Thirty micrograms of membrane extract was incubated with either biotin or biotin-HYD1 bound NeutrAvidin beads. The first lane is 30 μg of membrane extract only. CD44 was detected by western blot analysis using a pan-CD44 antibody.\nFIGS. 40A-40B. […] Biotin-HYD1 or biotin was immobilized to NeutraAvidin beads prior to incubation with 150 μg of membrane extract. The blot was initially probed for α4 integrin and subsequently stripped and re-probed with CD44 antibody.\nFIG. 65. […] Total cell membranes were isolated from U937 or HL-60 cells. Membrane lysate (150 μg) was incubated with 500 μg of biotin or biotin-MTI-101 bound to NeutrAvidin beads. […]\nThe inventors used biotin-HYD1 as bait to pulldown binding complexes contained within membrane extracts of H929 MM cells. […] The inventors next determined whether α4 integrin could be detected by western blot analysis. […] To determine whether […] was indeed a direct binding partner of […] the inventors used recombinant CD44 and an ELISA as a readout of binding. […]\nWe performed a total membrane binding assay with biotin conjugated HYD1 and NeutrAvidin beads on NCI-H929 and U266 MM cells. Samples were then loaded on an SDS-PAGE gel and analyzed by LC-MS/MS. The adhesion receptor CD44 was determined to be among the adhesion receptors that had the most peptide match hits and was confirmed as a valid hit via Western Blot analysis. […]"}}, "note": "Where a SMILES comes first, the peptide text is derived from it. [ ]: non-standard residue; d: D form. The star is where a group is joined. Biotin = O=C1N[C@H]2[C@H](CS[C@H]2CCCCC(=O)*)N1"}
{"smiles": "CC[C@@H](C)[C@@H](NC(=O)[C@@H](CCCCN)NC(=O)CCCC[C@@H]1SC[C@@H]2NC(=O)N[C@@H]21)C(=O)N[C@H](CCCCN)C(=O)N[C@H](CCSC)C(=O)N[C@@H](C(=O)N[C@@H](C(=O)N[C@H](CO)C(=O)N[C@H](Cc1c[nH]c2ccccc12)C(=O)N[C@H](CCCCN)C(=O)NCC(=O)O)[C@H](C)CC)C(C)C", "note": "[biotin-HYD1] (Biotin-[dK][dI][dK][dM][dV][dI][dS][dW][dK]G-OH; N-terminus and C-terminus assumed)", "values": [{"measurement": "IC50 of biotinylated peptide relative to HYD1", "setting": "[1]", "value": "slightly decreased"}, {"measurement": "binding to recombinant CD44 in ELISA", "setting": "[2]", "value": "binds recombinant CD44 in a direct ELISA"}, {"measurement": "binding to recombinant CD44 in ELISA", "setting": "[2]; listed as biotin conjugated HYD1", "value": "CD44 bound to biotin conjugated HYD1 in a concentration dependent manner"}, {"measurement": "pull-down of binding partners from H929 membrane extract", "setting": "[3]", "value": "interacts with CD44 in H929 cells"}]}
